Results published in patent US11415579B2, “Assay for measuring a rate of reaction between a target and a ligand candidate” (Imperial College Innovations Ltd., priority 2016, dated 2022).

Columns and labels:
[1] = target: T1, Cdk2(R122C) (C177A) (Homo sapiens, UniProt P24941, C177A/R122C); assay: Kinetic thiol consumption assay with Cdk2 mutant R122C; assay type: binding; set-up: key to Rate enhancement, Cdk2 R122C: rate constant with Cdk2 ÷ rate constant with model thiol (fold); conditions: additional mutation C177A; for Rate constant with Cdk2 R122C: Protein: Cdk2, cysteine position R122C, in h-1
T1 construct: poly-histidine; made in house; host or cells: E. coli
In short: (§1)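 5 μM thiol, degassed phosphate pH 8, 2% v/v immobilized TCEP beads; 1 h RT; fluorescence ex 380/em 470 nm; normalized vs DMSO/thiol-only; first-order exponential decay fit → rate constant; Cdk2 k / model-thiol k = rate enhancement per acrylamide.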

[2] = target: T2, Cdk2(S276C) (C177A) (Homo sapiens, UniProt P24941, C177A/S276C); assay: Kinetic thiol consumption assay with Cdk2 mutant S276C; assay type: binding; set-up: key to Rate enhancement, Cdk2 S276C: rate constant with Cdk2 ÷ rate constant with model thiol (fold); conditions: additional mutation C177A; for Rate constant with Cdk2 S276C: Protein: Cdk2, cysteine position S276C, in h^-1
T2 construct: poly-histidine; made in house; host or cells: E. coli
In short: as §1

[3] = target: T3, Cdk2(T182C) (C177A) (Homo sapiens, UniProt P24941, C177A/T182C); assay: Kinetic thiol consumption assay with Cdk2 mutant T182C; assay type: binding; set-up: key to Rate enhancement, Cdk2 T182C: rate constant with Cdk2 ÷ rate constant with model thiol (fold); conditions: additional mutation C177A; for Rate constant with Cdk2 T182C: Protein: Cdk2, cysteine position T182C, in h^-1
T3 construct: poly-histidine; made in house; host or cells: E. coli
In short: as §1

[4] = Kinetic thiol consumption assay with model thiol glutathione; assay type: physicochemical; set-up: Rate constant with glutathione (k(GSH)): unit not given here; conditions: for Rate constant with glutathione (k(GSH)): 500 μM ligand, 5 μM thiol, phosphate buffer pH 8; for Rate constant with Glutathione: Protein: Glutathione, cysteine position NA, in h-1
In short: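 Rate constants for acrylamide reaction with 5 μM glutathione come from first-order exponential fits of normalized fluorescence decay (ex 380, em 470 nm). Reactions run in degassed phosphate buffer at pH 8 containing TCEP beads, room temperature.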

[5] = target: T4, Cdk2(H71C) (C177A) (Homo sapiens, UniProt P24941, C177A/H71C); assay: Kinetic thiol consumption assay with Cdk2 mutant H71C; assay type: binding; set-up: key to Rate enhancement, Cdk2 H71C: rate constant with Cdk2 ÷ rate constant with model thiol (fold); conditions: additional mutation C177A; for Rate constant with Cdk2 H71C: Protein: Cdk2, cysteine position H71C, in h^-1
T4 construct: poly-histidine; made in house; host or cells: E. coli
In short: as §1

[6] = target: T5, human cyclin-dependent kinase 2 (Cdk2) (Homo sapiens, UniProt P24941); assay: Kinetic thiol consumption assay with wild type Cdk2 (C177); assay type: binding; set-up: key to Rate enhancement, Cdk2 WT: k(Cdk2) divided by k(model thiol); Rate constant with Cdk2 (k(Cdk2)): unit not given here; conditions: for Rate constant with Cdk2 (k(Cdk2)): 500 μM ligand, 5 μM thiol, phosphate buffer pH 8; for Rate enhancement, Cdk2 WT: no additional mutations; for Rate constant with Cdk2 WT: Protein: Cdk2, cysteine position WT, in h^-1; for k(Cdk2)/k(Cdk2_mut) rate enhancement: model thiol Cdk2[C177A, F80C, K278C]; for k(Cdk2)/k(GSH) rate enhancement: model thiol glutathione
T5 construct: poly-histidine; made in house; host or cells: E. coli
In short: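 Rate enhancement: first-order decay constant with Cdk2 over that with a model thiol. Thiols (5 μM, degassed phosphate buffer pH 8, immobilized TCEP) were incubated with acrylamides at room temperature, and thiol consumption followed by fluorescence at 380/470 nm, normalized to DMSO control. Cdk2 was His-tagged, E. coli-expressed, with one surface cysteine (C177).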

[7] = target: T6, Cdk2(C177A, F80C) (Homo sapiens, UniProt P24941, C177A/F80C); assay: Kinetic thiol consumption assay with Cdk2 mutant F80C, incl. kobs versus concentration (Kd, k2); assay type: binding; set-up: key to Rate enhancement, Cdk2 F80C: Cdk2 rate constant divided by model-thiol rate constant; conditions: additional mutation C177A; for Rate constant with Cdk2 F80C: Protein: Cdk2, cysteine position F80C, in h^-1
T6 construct: poly-histidine; made in house; host or cells: E. coli
In short: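 His-tagged Cdk2(C177A/F80C) from E. coli or model thiol, 5 μM in degassed phosphate buffer pH 8 with TCEP beads, reacted with acrylamide ligands; fluorescence (ex/em 380/470 nm) normalized to DMSO control and fitted to first-order decay for kobs. Kd and k2 obtained from hyperbolic fit of kobs versus ligand concentration.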

[8] = target: T7, Cdk2(N272C) (C177A) (Homo sapiens, UniProt P24941, C177A/N272C); assay: Kinetic thiol consumption assay with Cdk2 mutant N272C; assay type: binding; set-up: key to Rate enhancement, Cdk2 N272: rate constant with Cdk2 ÷ rate constant with model thiol (fold); conditions: for Rate enhancement, Cdk2 N272: Cdk2 N272, additional mutation C177A; for Rate constant with Cdk2 N272C: Protein: Cdk2, cysteine position N272C, additional mutation C177A, in h^-1
T7 construct: poly-histidine; made in house; host or cells: E. coli
In short: as §1

[9] = target: T8, Cdk2(S181C) (C177A) (Homo sapiens, UniProt P24941, C177A/S181C); assay: Kinetic thiol consumption assay with Cdk2 mutant S181C; assay type: binding; set-up: key to Rate enhancement, Cdk2 S181C: rate constant with Cdk2 ÷ rate constant with model thiol (fold); conditions: additional mutation C177A; for Rate constant with Cdk2 S181C: Protein: Cdk2, cysteine position S181C, in h^-1
T8 construct: poly-histidine; made in house; host or cells: E. coli
In short: as §1

[10] = target: T9, Cdk2[C177A, F80C, K278C] (Homo sapiens, UniProt P24941, C177A/F80C/K278C); assay: Kinetic thiol consumption assay with mutant Cdk2 as model thiol; assay type: binding; set-up: unit not given here; conditions: 500 μM ligand, 5 μM thiol, phosphate buffer pH 8
T9 construct: poly-histidine; made in house; host or cells: E. coli
In short: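 Model thiol: His-tagged human Cdk2 C177A/F80C/K278C (two engineered surface cysteines), E. coli-expressed, 5 μM in degassed phosphate buffer pH 8 with immobilized TCEP beads (2% v/v). Fluorescence (ex/em 380/470 nm) followed over time at room temperature, normalized to DMSO/thiol control. First-order decay fit gives rate constants.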

Row | SMILES | Rate enhancement, Cdk2 R122C [1] | Rate enhancement, Cdk2 S276C [2] | Rate enhancement, Cdk2 T182C [3] | Rate constant with Cdk2 T182C [3] | Rate constant with glutathione (k(GSH)) [4] | Rate constant with Glutathione [4] | Rate enhancement, Cdk2 H71C [5] | Rate constant with Cdk2 (k(Cdk2)) [6] | Rate enhancement, Cdk2 WT [6] | Rate constant with Cdk2 WT [6] | k(Cdk2)/k(Cdk2_mut) rate enhancement [6] | k(Cdk2)/k(GSH) rate enhancement [6] | Rate enhancement, Cdk2 F80C [7] | Rate enhancement, Cdk2 N272 [8] | Rate constant with Cdk2 N272C [8] | Rate enhancement, Cdk2 S181C [9] | Rate constant with Cdk2 S181C [9] | Rate constant with Cdk2[C177A, F80C, K278C] (k(Cdk2_mut)) [10] | Rate constant with Cdk2 R122C [1] | Rate constant with Cdk2 S276C [2] | further results
1 | C=CC(=O)NCc1ccc(-c2ccccc2)cc1 [EL-1050] | 0 | 0 | 0.5328 | 0.001525 | 0.00204 | 0.002862 | 0 | 0.00166 | 0.579 | 0.001657 | 1.317 | 0.813 | 0 | 0.1784 | 0.0005105 | 0.5143 | 0.001472 | 0.00126 | – | – | –
2 | C=CC(=O)NC(C)c1ccc2c(c1)OCO2 (centres unmarked) [EL-1051] | 0.3414 | 1.226 | 0.6691 | 0.003057 | 0.00461 | 0.004569 | 0 | 0.00298 | 0.6621 | 0.003025 | 0.8251 | 0.6464 | 0.1378 | 0.3701 | 0.001691 | 0.6373 | 0.002912 | 0.00361 | 0.00156 | 0.005603 | Rate constant with Cdk2 F80C [7]: 0.0006296
3 | C=CC(=O)N1CCCCCC1c1cccnc1 (centres unmarked) [EL-1059] | 0.3573 | 0.7301 | 1.009 | 0.00654 | 0.00656 | 0.00648 | 0.3667 | 0.00213 | 0.3281 | 0.002126 | 0.4738 | 0.3244 | 0.1379 | 0.325 | 0.002106 | 0.9519 | 0.006168 | 0.00449 | 0.002315 | 0.004731 | Rate constant with Cdk2 H71C [5]: 0.002376; Rate constant with Cdk2 F80C [7]: 0.0008934
4 | C=CC(=O)N1CCCC1c1ccc(OC)cc1 (centres unmarked) [EL-1062] | 0.606 | 0.2765 | 5.254 | 0.0266 | 0.00509 | 0.005063 | 0 | 0.00448 | 1.245 | 0.006301 | 0.6762 | 0.8802 | 1.223 | 0.3073 | 0.001556 | 1.564 | 0.007918 | 0.00663 | 0.003068 | 0.0014 | Rate constant with Cdk2 F80C [7]: 0.006191
5 | C=CC(=O)N1CCCCCC1c1cccs1 (centres unmarked) [EL-1063] | 0.7319 | 0.5613 | 9.081 | 0.03082 | 0.00353 | 0.003394 | 1.092 | 0.00274 | 0.8082 | 0.002743 | 0.5955 | 0.7775 | 2.756 | 1.172 | 0.003977 | 1.561 | 0.005297 | 0.00461 | 0.002484 | 0.001905 | Rate constant with Cdk2 H71C [5]: 0.003705; Rate constant with Cdk2 F80C [7]: 0.009353
